Reference: ChEMBL document CHEMBL3393053, “Synthesis and biological evaluation of isoindoloisoquinolinone, pyroloisoquinolinone and benzoquinazolinone derivatives as poly(ADP-ribose) polymerase-1 inhibitors” (Bioorg Med Chem, 2015)

Key:
[1] = Toxicity against chicken RBC assessed as effect on cell viability at 25 to 100 uM by acridine orange and ethidium bromide staining method; format: cell-based, Gallus gallus; conditions: erythrocyte
[2] = Cytoprotective activity against H2O2-induced cytotoxicity in chicken RBC assessed as cell viability pre-incubated at 100 uM followed by H2O2 addition by acridine orange and ethidium bromide staining method (reference value: 41 +/- 2.08%); format: functional; conditions: Gallus gallus, Erythrocyte; read-out: Activity
[3] = Antioxidant activity against H2O2-induced oxidative stress in chicken RBC assessed as catalase activity by measuring H2O2 utilization per mg protein pre-incubated at 25 uM followed by H2O2 addition by UV spectroscopy (reference value: 15.97 +/- 2.12 nmol of H2O2 utilized/min/mg of protein); format: functional, Gallus gallus, Erythrocyte
[4] = Antioxidant activity against H2O2-induced oxidative stress in chicken RBC assessed as catalase activity by measuring H2O2 utilization per mg protein pre-incubated at 50 uM followed by H2O2 addition by UV spectroscopy (reference value: 15.97 +/- 2.12 nmol of H2O2 utilized/min/mg of protein); format: functional, Gallus gallus, Erythrocyte
[5] = Antioxidant activity against H2O2-induced oxidative stress in chicken RBC assessed as catalase activity by measuring H2O2 utilization per mg protein pre-incubated at 75 uM followed by H2O2 addition by UV spectroscopy (reference value: 15.97 +/- 2.12 nmol of H2O2 utilized/min/mg of protein); format: functional, Gallus gallus, Erythrocyte
[6] = Antioxidant activity against H2O2-induced oxidative stress in chicken RBC assessed as catalase activity by measuring H2O2 utilization per mg protein pre-incubated at 100 uM followed by H2O2 addition by UV spectroscopy (reference value: 15.97 +/- 2.12 nmol of H2O2 utilized/min/mg of protein); format: functional, Gallus gallus, Erythrocyte
[7] = (§1) Antioxidant activity against H2O2-induced oxidative stress in chicken RBC assessed as superoxide dismutase activity by measuring pyrogallol oxidization per mg protein pre-incubated at 25 uM followed by H2O2 addition by UV spectroscopy (reference value: 11.32 +/- 1.96 pyrogallol oxidized/min/mg of protein); format: functional, Gallus gallus, Erythrocyte
[8] = as §1, with “50” for “25”; format: functional, Gallus gallus, Erythrocyte
[9] = as §1, with “75” for “25”; format: functional, Gallus gallus, Erythrocyte
[10] = as §1, with “100” for “25”; format: functional, Gallus gallus, Erythrocyte
[11] = (§2) Antioxidant activity against H2O2-induced oxidative stress in chicken RBC assessed as lipid peroxidation level by measuring malondialdehyde formation per mg protein pre-incubated at 25 uM followed by H2O2 addition by UV spectroscopy (reference value: 84.32 +/- 12.04 nmol malondialdehyde formed/mg protein); format: functional, Gallus gallus, Erythrocyte
[12] = as §2, with “50” for “25”; format: functional, Gallus gallus, Erythrocyte
[13] = as §2, with “75” for “25”; format: functional, Gallus gallus, Erythrocyte
[14] = as §2, with “100” for “25”; format: functional, Gallus gallus, Erythrocyte
[15] = test system: Erythrocyte; assay: Cytoprotective activity against H2O2-induced genomic DNA damage in chicken RBC assessed as DNA level in comet head region pre-incubated at 100 uM followed by H2O2 addition by single cell alkaline gel electrophoresis and fluorescent microscopy based comet assay (reference value: 52.23 +/- 3.98%); format: functional, Gallus gallus
[16] = test system: Erythrocyte; assay: Cytoprotective activity against H2O2-induced genomic DNA damage in chicken RBC assessed as DNA level in comet tail region pre-incubated at 100 uM followed by H2O2 addition by single cell alkaline gel electrophoresis and fluorescent microscopy based comet assay (reference value: 45.78 +/- 3.24%); format: functional, Gallus gallus
[17] = target: Poly [ADP-ribose] polymerase 1 (Homo sapiens, UniProt P09874); assay: Inhibition of PARP1 (unknown origin) in presence of NAD+ by homogenous fluorescence plate assay
Chain of Poly [ADP-ribose] polymerase 1 (P09874 whole entry): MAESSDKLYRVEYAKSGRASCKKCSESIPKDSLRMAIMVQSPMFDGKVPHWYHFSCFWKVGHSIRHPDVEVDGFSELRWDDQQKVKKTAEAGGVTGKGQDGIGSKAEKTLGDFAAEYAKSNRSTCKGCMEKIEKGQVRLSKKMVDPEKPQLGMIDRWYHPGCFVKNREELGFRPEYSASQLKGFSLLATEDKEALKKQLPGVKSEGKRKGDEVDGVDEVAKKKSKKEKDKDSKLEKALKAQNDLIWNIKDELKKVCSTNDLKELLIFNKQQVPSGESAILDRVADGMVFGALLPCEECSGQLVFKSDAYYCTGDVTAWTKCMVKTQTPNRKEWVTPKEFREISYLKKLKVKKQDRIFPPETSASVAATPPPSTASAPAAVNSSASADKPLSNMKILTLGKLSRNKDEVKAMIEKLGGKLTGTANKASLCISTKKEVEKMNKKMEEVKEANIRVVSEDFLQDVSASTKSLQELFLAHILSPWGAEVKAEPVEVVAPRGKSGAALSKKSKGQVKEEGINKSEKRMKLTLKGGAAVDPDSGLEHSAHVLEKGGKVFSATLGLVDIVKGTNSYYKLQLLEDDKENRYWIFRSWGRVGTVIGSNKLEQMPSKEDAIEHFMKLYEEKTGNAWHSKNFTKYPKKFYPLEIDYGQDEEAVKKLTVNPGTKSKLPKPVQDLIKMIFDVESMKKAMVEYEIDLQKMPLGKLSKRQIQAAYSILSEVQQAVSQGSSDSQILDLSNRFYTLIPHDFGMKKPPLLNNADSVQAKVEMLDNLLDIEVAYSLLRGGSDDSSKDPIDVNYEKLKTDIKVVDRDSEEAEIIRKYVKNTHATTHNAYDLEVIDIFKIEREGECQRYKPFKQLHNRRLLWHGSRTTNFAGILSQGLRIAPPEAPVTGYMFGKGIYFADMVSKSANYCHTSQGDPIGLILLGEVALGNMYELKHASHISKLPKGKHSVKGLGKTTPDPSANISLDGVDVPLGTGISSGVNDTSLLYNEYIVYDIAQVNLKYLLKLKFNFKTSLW

SMILES | Activity [1] | viability at 100 µM [2] | Activity [3] | Activity [4] | Activity [5] | Activity [6] | Activity [7] | Activity [8] | Activity [9] | Activity [10] | Activity [11] | Activity [12] | Activity [13] | Activity [14] | Activity [15] | Activity [16] | IC50 [17]
COc1cc2c(cc1OC)C1(O)c3ccccc3C(=O)N1CC2 (stereo unspecified) | Non-toxic | 79.3% | 26.54 nmol/min/mg | 43.65 nmol/min/mg | 48.43 nmol/min/mg | 64.87 nmol/min/mg protein | 17.34 µmol/min | 19.35 µmol/min | 23.98 µmol/min | 28.45 µmol/min | 38.46 nmol/mg protein | 29.27 nmol/mg protein | 16.54 nmol/mg protein | 18.32 nmol/mg protein | 65.56% | 34.44% | –
COc1cc2c(c(OC)c1)C1CCC(=O)N1CC2 (stereo unspecified) | Non-toxic | 68.3% | 38.65 nmol/min/mg | 46.35 nmol/min/mg | 58.28 nmol/min/mg | 70.43 nmol/min/mg protein | 17.23 µmol/min | 19.43 µmol/min | 24.35 µmol/min | 29.34 µmol/min | 28.38 nmol/mg protein | 19.12 nmol/mg protein | 16.87 nmol/mg protein | 16.14 nmol/mg protein | 54.2% | 45.8% | –
COc1ccc2c(c1)CCN1C(=O)c3ccccc3C21O (stereo unspecified) | Non-toxic | 53.6% | 15.31 nmol/min/mg | 16.25 nmol/min/mg | 16.46 nmol/min/mg | 16.37 nmol/min/mg protein | 12.65 µmol/min | 11.87 µmol/min | 11.48 µmol/min | 11.37 µmol/min | 62.98 nmol/mg protein | 56.32 nmol/mg protein | 48.12 nmol/mg protein | 42.14 nmol/mg protein | 57.29% | 41.96% | –
COc1ccc2c(c1OC)CCN1C(=O)c3ccccc3C21O (stereo unspecified) | Non-toxic | 65.6% | 15.31 nmol/min/mg | 16.25 nmol/min/mg | 16.46 nmol/min/mg | 16.37 nmol/min/mg protein | 13.19 µmol/min | 15.96 µmol/min | 15.54 µmol/min | 18.13 µmol/min | 53.65 nmol/mg protein | 46.37 nmol/mg protein | 41.21 nmol/mg protein | 48.32 nmol/mg protein | 56.64% | 42.97% | –
Cc1ccc2c(c1)CCN1C(=O)c3ccccc3C21O (stereo unspecified) | Non-toxic | 82.3% | 31.71 nmol/min/mg | 50.35 nmol/min/mg | 54.56 nmol/min/mg | 65.35 nmol/min/mg protein | 11.51 µmol/min | 14.56 µmol/min | 15.08 µmol/min | 18.6 µmol/min | 53.66 nmol/mg protein | 43.76 nmol/mg protein | 26.52 nmol/mg protein | 16.95 nmol/mg protein | 87.56% | 11.44% | –
COc1cc2c(cc1O)C1(O)c3ccccc3C(=O)N1CC2 (stereo unspecified) | Non-toxic | 93.6% | 29.52 nmol/min/mg | 51.49 nmol/min/mg | 62.57 nmol/min/mg | 70.66 nmol/min/mg protein | 18.616 µmol/min | 21.63 µmol/min | 28.863 µmol/min | 30.94 µmol/min | 52.71 nmol/mg protein | 47.15 nmol/mg protein | 26.35 nmol/mg protein | 15.02 nmol/mg protein | 92.3% | 7.34% | –
COc1cc2c(cc1OC)C1(O)C3C4c5ccccc5C(c5ccccc54)C3C(=O)N1CC2 (stereo unspecified) | Non-toxic | 87.3% | 46.11 nmol/min/mg | 55.89 nmol/min/mg | 65.12 nmol/min/mg | 67.91 nmol/min/mg protein | 15.86 µmol/min | 19.63 µmol/min | 23.58 µmol/min | 27.87 µmol/min | 51.48 nmol/mg protein | 35.6 nmol/mg protein | 24.44 nmol/mg protein | 18.1 nmol/mg protein | 82.45% | 16.55% | –
O=C1c2ccccc2C2(O)c3ccc(Br)cc3CCN12 (stereo unspecified) | Non-toxic | 75.3% | 36.597 nmol/min/mg | 51.14 nmol/min/mg | 56.05 nmol/min/mg | 65.007 nmol/min/mg protein | 12.8667 µmol/min | 14.05 µmol/min | 17.51 µmol/min | 21.58 µmol/min | 70.74 nmol/mg protein | 54.24 nmol/mg protein | 34.52 nmol/mg protein | 16.75 nmol/mg protein | 94.32% | 4.55% | –
COc1ccc(OC)c2c1CCN1C(=O)c3ccccc3C21O (stereo unspecified) | Non-toxic | 72% | 23.65 nmol/min/mg | 31.76 nmol/min/mg | 47.53 nmol/min/mg | 68.46 nmol/min/mg protein | 16.32 µmol/min | 19.24 µmol/min | 23.76 µmol/min | 27.76 µmol/min | 36.23 nmol/mg protein | 28.21 nmol/mg protein | 14.24 nmol/mg protein | 20.14 nmol/mg protein | 90.45% | 8.55% | –
O=C1NCCc2c(OCCCCN3CCCCC3)cccc21 | – | – | – | – | – | – | – | – | – | – | – | – | – | – | – | – | 0.0532 µM
COc1ccc2c(c1OC)CCN1C(=O)CCCC21 (stereo unspecified) | Non-toxic | 86.6% | 17.36 nmol/min/mg | 25.95 nmol/min/mg | 28.47 nmol/min/mg | 31.43 nmol/min/mg protein | 11.76 µmol/min | 11.48 µmol/min | 11.95 µmol/min | 12.98 µmol/min | 61.45 nmol/mg protein | 54.23 nmol/mg protein | 48.23 nmol/mg protein | 49.54 nmol/mg protein | 73.84% | 9.75% | –
